In patent US20150238394A1, “Triggerable Compositions For Two-Stage, Controlled Release of Proactive Chemistry Using Aldehydes” (Kimberly-Clark Worldwide, Inc., priority 2014, published 2015):

Assay: Volatility and smell of non-salt acetals, neat and embedded in polymer films brushed on polyethylene film and air-dried
Format: physicochemical
Details: embedded in PVP/VA, Eudragit E-100 and Eudragit S-100, brushed on polyethylene films, air-dried
From the text: 1. Acetal of citronellal with ethanol and acetal of vanillin with ethanol were custom-synthesized. Their structures are shown below. […] The acetals were embedded in PVP/VA, Eudragit E-100, and Eudragit S-100 by simply dissolving the acetals in the solutions of those polymers. The solutions were then brushed on polyethylene films and air-dried. The parent aldehydes were also embedded in the same ratio in those polymers. Strong smells of both parent aldehydes and acetals could be nasally detected after drying. Those non-salt based acetals cannot effectively reduce the volatility of aldehyde-based fragrances and are not good pro-actives for stabilizing those fragrances.

| smell nasally detected after drying | SMILES |
| --- | --- |
| Strong smells | CCOC(CC(C)CCC=C(C)C)OCC (stereo not shown) [Acetal of citronellal with ethanol] |
| Strong smells | CCOC(OCC)c1ccc(O)c(OC)c1 [acetal of vanillin with ethanol] |
| Strong smells | CC(C)=CCCC(C)CC=O (stereo not shown) [citronellal] |
| Strong smells | COc1cc(C=O)ccc1O [vanillin] |
